Reference: article PMC8541992, “Safety, pharmacokinetics, and preliminary efficacy of the PARP inhibitor talazoparib in Japanese patients with advanced solid tumors: phase 1 study” (Investigational New Drugs, 2021)
Like-named read-outs stand apart in the source and are kept apart here.

Assays:
PARP on DNA = tested on: PARP on DNA; parameters: method as in PMID 24356813; conditions: compared with other PARP inhibitors under investigation or approved in Japan; cited from earlier work
[1] = Phase 1 study: single- and multiple-dose plasma pharmacokinetics; assay type: in vivo, human (Japanese patients); conditions: for Rac (ratio of AUCtau after multiple doses/AUCtau after single dose) / Rss (ratio of AUCtau after multiple doses/AUCinf after single dose) / Tmax: median (range); for Cmax / AUC / AUC(0-inf) / Cmin: geometric mean (geometric %CV); for half-life: read-out: t1/2 (terminal half-life) (converted); for AUC: AUCtau = AUC24
Protocol: PK parameters following single- and multiple-dose administration of single-agent talazoparib, included talazoparib area under the plasma concentration-time curve from 0 h to infinity (AUCinf; single dose) and during the dosing interval ([NT], multiple dosing); maximum observed plasma concentration (Cmax); lowest plasma concentration observed during the dosing interval (Cmin); elimination half-life (t1/2); time to Cmax (Tmax); ratio of [NT] after multiple doses/[NT] after single dose (Rac); and ratio of [NT] after multiple doses/AUCinf after single dose (Rss). PK parameters were calculated for each patient using non-compartmental analysis of plasma concentration-time data. Blood samples were collected pre-dose on Day -7, and on Days 1, 15, and 22 of Cycle 1, and Day 1 of Cycles 3 and 4. Post-dose blood samples were also collected at 0.5, 0.75, 1, 2, 3, 4, 6, 8, 10, and 24 h (Day -7 and Day 22 of Cycle 1 only) and at 48, 72, and 96 h (Day -7 only). […] PK parameters and safety data were summarized descriptively.

[2] = tested on: locally advanced or metastatic solid tumors; test: Phase 1 study: antitumor activity, investigator assessment (RECIST v.1.1); assay type: in vivo, human (Japanese patients)
Protocol: Antitumor activity was evaluated using radiological tumor assessments of all known or suspected disease sites. Imaging could include chest, abdomen, and pelvis computed tomography (CT) or magnetic resonance imaging (MRI) scans. Brain scans and bone scans were performed at baseline if disease was suspected and during the study as appropriate. CT or MRI scans were conducted at baseline (screening visit), on Day 1 (±7 days) of Cycle 2, and every other cycle thereafter, whenever disease progression was suspected, and at the time of withdrawal from treatment (if not performed within 6 weeks). Tumor response (unconfirmed) was assessed using Response Evaluation Criteria in Solid Tumors (RECIST) v.1.1, and included best overall response (complete response [CR], partial response [PR], stable disease [SD], progressive disease [PD], and non-CR/non-PD), objective response, defined as the sum of CR and PR, and overall disease control rate, defined as the sum of CR, PR, SD, and non-CR/non-PD.

[3] = tested on: Japanese patients with locally advanced or metastatic solid tumors; test: Phase 1 dose-escalation study: safety (DLTs, TEAEs)
Description: This is an ongoing open-label, non-randomized, phase 1 study of the PARP inhibitor, talazoparib, in Japanese patients with locally advanced or metastatic solid tumors regardless of mutations in DDR-related genes who are resistant to standard therapies or for whom no standard therapy is available (ClinicalTrials.gov NCT03343054). The study comprises a dose-escalation phase and a dose-expansion phase conducted in 8 Japanese centers (Supplementary Fig. 1). The objective of the initial dose-escalation phase was to investigate the safety, PK (single-dose and steady-state), and preliminary antitumor activity of single-agent talazoparib in sequential cohorts of patients with advanced solid malignancies. A modified 3 + 3 dose-escalation scheme was used to determine the recommended phase 2 dose in Japanese patients; up to 3 patients could be enrolled simultaneously in a cohort although sometimes due to logistical or clinical reasons more than 3 but no more than 9 patients were enrolled at each dose level. Successive cohorts of patients received escalating doses of talazoparib on an outpatient basis starting from 0.75 mg/day. To understand the single-dose safety and single-dose PK assessments of talazoparib, a lead-in period preceding the continuous daily doses was included. Data for the dose-escalation phase are reported here (data cut-off January 2020).
Eligible patients were assigned to one of two talazoparib treatment groups (dose levels). Successive cohorts of patients received talazoparib dosed orally at 0.75 mg QD (3 capsules of 0.25 mg) or 1 mg QD (4 capsules of 0.25 mg), with or without food, on an outpatient basis according to a modified 3 + 3 dose-escalation scheme. On Day −7 (lead-in visit), patients received a single dose of talazoparib, followed by continuous daily dosing from Day 1 of each 28-day cycle. Patients continued to receive talazoparib until either disease progression, patient refusal of study treatment, or unacceptable toxicity. Dose modifications were allowed depending on the type and severity of the toxicity encountered. To continue talazoparib, patients were required to have adequate bone marrow functions (hemoglobin ≥8.0 g/dL, absolute neutrophil count ≥1000/mm^3, platelets ≥50,000/mm^3). If grade 1 or grade 2 treatment-related toxicity occurred (other than renal impairment), dose interruption or dose reduction were not required. Daily dosing was paused for grade ≥3 adverse events (AEs) considered related to talazoparib. Supportive care including blood products for hematologic toxicities was allowed as appropriate per local guidance. Talazoparib dosing could resume at the next lower dose level (e.g., from 1.0 mg/day to 0.75 mg/day; 0.75 mg/day to 0.5 mg/day; 0.5 mg/day to 0.25 mg/day) when toxicity resolved to grade 1 or returned to baseline. […]

[4] = tested on: non-Japanese patients with advanced breast cancer; parameters: method as in PMID 32162822; conditions: EMBRACA study; cited from earlier work
PARP = tested on: PARP; parameters: method as in PMID 24356813, PMID 31296812; conditions: PARP inhibition; read-out: Half-maximal inhibitory concentration; cited from earlier work
[5] = tested on: HER2-negative advanced breast cancer with a germline BRCA1/2 mutation; parameters: method as in PMID 30110579, PMID 30124753; conditions: 1 mg QD versus chemotherapy; 95% CI 0.41 to 0.71, P < 0.001; cited from earlier work
[6] = 0.75 mg QD oral, N = 3, listed as talazoparib
[7] = 1 mg QD oral, N = 6, listed as talazoparib
[8] = plasma, multiple dose 0.75 mg QD oral, N = 3

Cn1ncnc1[C@H]1c2n[nH]c(=O)c3cc(F)cc(c23)N[C@@H]1c1ccc(F)cc1 [Talazoparib, talazoparib]
PARP-trapping potential relative to other PARP inhibitors (PARP on DNA): approximately 100 times greater | Rac (ratio of AUCtau after multiple doses/AUCtau after single dose) ([1]; 0.75 mg QD oral, N = 3): […] | Rss (ratio of AUCtau after multiple doses/AUCinf after single dose) ([1]; 0.75 mg QD oral, N = 3): […] | Rac (ratio of AUCtau after multiple doses/AUCtau after single dose) [1, 6]: […] | Rss (ratio of AUCtau after multiple doses/AUCinf after single dose) [1, 6]: […] | Rac (ratio of AUCtau after multiple doses/AUCtau after single dose) ([1]; 1 mg QD oral, N = 6): […] | Rss (ratio of AUCtau after multiple doses/AUCinf after single dose) ([1]; 1 mg QD oral, N = 6): […] | Rac (ratio of AUCtau after multiple doses/AUCtau after single dose) [1, 7]: […] | Rss (ratio of AUCtau after multiple doses/AUCinf after single dose) [1, 7]: […] | Dose proportionality of drug exposure (Cmax and AUC) ([1]; 1 mg dose level compared with 0.75 mg dose level): slightly higher than dose-proportional | Cmax ([1]; human, plasma, po, 0.75 mg, multiple dose 0.75 mg QD oral, N = 3): 14.4 ng/mL | half-life ([1]; human, plasma, po, 0.75 mg, plasma, single dose 0.75 mg oral, N = 3, mean (standard deviation)): 56.6 h | Tmax ([1]; human, plasma, po, 0.75 mg, plasma, single dose 0.75 mg oral, N = 3, read-out: Tmax): 0.98 h | Cmax ([1]; human, plasma, po, 0.75 mg, single dose 0.75 mg oral, N = 3): 7.24 ng/mL | Cmax ([1]; human, plasma, po, 1 mg, multiple dose 1 mg QD oral, N = 6): 32.8 ng/mL | Tmax ([1]; human, plasma, po, 1 mg, plasma, multiple dose 1 mg QD oral, N = 6, read-out: Tmax): 1.03 h | half-life ([1]; human, plasma, po, 1 mg, plasma, single dose 1 mg oral, N = 6, mean (standard deviation)): 50.7 h | Tmax ([1]; human, plasma, po, 1 mg, plasma, single dose 1 mg oral, N = 6, read-out: Tmax): 0.97 h | Cmax ([1]; human, plasma, po, 1 mg, single dose 1 mg oral, N = 6): 13.8 ng/mL | AUC ([1]; human, plasma, multiple dose 0.75 mg QD oral, N = 3): 127 ng·h/mL | AUC ([1]; human, plasma, multiple dose 1 mg QD oral, N = 6): 245 ng·h/mL | AUC(0-inf) ([1]; human, plasma, single dose 0.75 mg oral, N = 3): 108 ng·h/mL | AUC(0-inf) ([1]; human, plasma, single dose 1 mg oral, N = 6): 200 ng·h/mL | Cmin [1, 8]: 2.18 (8) ng/mL | Tmax [1, 8]: 1.02 (1.0–1.9) h | Cmin ([1]; plasma, multiple dose 1 mg QD oral, N = 6): 3.65 (49) ng/mL | t1/2 (terminal half-life) ([1]; plasma, single dose 1 mg oral, N = 6, mean (standard deviation)): 50.73 (10.1) h | Time to peak of mean plasma concentrations ([1]; single or multiple dosing at 0.75 mg QD or 1 mg QD): around 1 h | Best overall response (unconfirmed): CR ([2]; 0.75 mg QD oral, N = 3): 0 n (%) | Best overall response (unconfirmed): Non-CR/non-PD ([2]; 0.75 mg QD oral, N = 3): 1 (33.3) n (%) | Best overall response (unconfirmed): PD ([2]; 0.75 mg QD oral, N = 3): 2 (66.7) n (%) | Best overall response (unconfirmed): PR ([2]; 0.75 mg QD oral, N = 3): 0 n (%) | Best overall response (unconfirmed): SD ([2]; 0.75 mg QD oral, N = 3): 0 n (%) | Disease control (CR + PR + SD + non-CR/non-PD) ([2]; 0.75 mg QD oral, N = 3): 1 (33.3) n (%) | Objective response (CR + PR) ([2]; 0.75 mg QD oral, N = 3): 0 n (%) | Best overall response (unconfirmed): CR ([2]; 1 mg QD oral, N = 6): 0 n (%) | Best overall response (unconfirmed): Non-CR/non-PD ([2]; 1 mg QD oral, N = 6): 1 (16.7) n (%) | Best overall response (unconfirmed): PD ([2]; 1 mg QD oral, N = 6): 3 (50.0) n (%) | Best overall response (unconfirmed): PR ([2]; 1 mg QD oral, N = 6): 0 n (%) | Best overall response (unconfirmed): SD ([2]; 1 mg QD oral, N = 6): 2 (33.3) n (%) | Disease control (CR + PR + SD + non-CR/non-PD) ([2]; 1 mg QD oral, N = 6): 3 (50.0) n (%) | Objective response (CR + PR) ([2]; 1 mg QD oral, N = 6): 0 n (%) | Overall disease control rate (CR + PR + SD + non-CR/non-PD) ([2]; all 9 patients, 0.75 and 1 mg QD, unconfirmed responses): 44.4% | Best overall response (unconfirmed): CR ([2]; total, 0.75 and 1 mg QD, N = 9): 0 n (%) | Best overall response (unconfirmed): Non-CR/non-PD ([2]; total, 0.75 and 1 mg QD, N = 9): 2 (22.2) n (%) | Best overall response (unconfirmed): PD ([2]; total, 0.75 and 1 mg QD, N = 9): 5 (55.6) n (%) | Best overall response (unconfirmed): PR ([2]; total, 0.75 and 1 mg QD, N = 9): 0 n (%) | Best overall response (unconfirmed): SD ([2]; total, 0.75 and 1 mg QD, N = 9): 2 (22.2) n (%) | Disease control (CR + PR + SD + non-CR/non-PD) ([2]; total, 0.75 and 1 mg QD, N = 9): 4 (44.4) n (%) | Objective response (CR + PR) ([2]; total, 0.75 and 1 mg QD, N = 9): 0 n (%) | TEAE leading to death ([3]; 0.75 mg QD oral, N = 3): 0 n (%) | TEAE leading to death ([3]; 1 mg QD oral, N = 6): 0 n (%) | Dose reduction due to TEAE ([3]; human, in vivo): 1 (11.1) n (%) | TEAE leading to death ([3]; total, 0.75 and 1 mg QD, N = 9): 0 n (%) | Patients discontinued due to anemia [4]: 0.7% | Patients discontinued due to hematologic toxicities [4]: 1.4% | IC50 (PARP): […] | Progression-free survival, hazard ratio [5]: […]
